# Values quoted from earlier work in patent EP1997479A1, “Stabilized amorphous candesartan cilexetil compositions for oral administration” (Helm AG, priority 2007, dated 2008).
smiles,measurement,value
"CCOc1nc2cccc(C(=O)OC(C)OC(=O)OC3CCCCC3)c2n1Cc1ccc(-c2ccccc2-c2nnn[nH]2)cc1 (racemic) [Candesartan cilexetil, (±)-1-(Cyclohexyloxycarbonyloxy)ethyl 2-ethoxy-1-[[2'-(1H-tetrazol-5-yl)biphenyl-4-yl]methyl]-1 H-benzimidazole-7-carboxylate]",solubility in water,low solubility in water
